# Test results as given in ChEMBL document CHEMBL1201862, “PubChem BioAssay data set” (2004).
#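 Each compound was tested at five concentrations against cells in 96-well plates for 48 hours. GI50 marks 50% less growth.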 Active and inactive are the calls of the source. Cut-off read from the data, not from the text of the source: active = GI50 up to about 1.1 µM and inactive = higher.
# What was measured:
# Assay in all cases: growth of human tumour cells (NCI), 48 h
# [1] = tested on: PC-3
# [2] = tested on: KM12
# [3] = tested on: UACC-257
# [4] = tested on: ACHN
# [5] = tested on: SF-539
# [6] = tested on: UO-31
# [7] = tested on: IGROV-1
# [8] = tested on: Malme-3M
# [9] = tested on: MOLT-4
# [10] = tested on: HL-60
# [11] = tested on: SK-OV-3
# [12] = tested on: MDA-N
# [13] = tested on: EKVX
# [14] = tested on: LOX IMVI
# [15] = tested on: CAKI-1
# [16] = tested on: 786-0
# [17] = tested on: OVCAR-3
# [18] = tested on: HOP-62
# [19] = tested on: DU-145
# [20] = tested on: SK-MEL-5
Compound,GI50 [1],GI50 [2],GI50 [3],GI50 [4],GI50 [5],GI50 [6],GI50 [7],GI50 [8],GI50 [9],GI50 [10],GI50 [11],GI50 [12],GI50 [13],GI50 [14],GI50 [15],GI50 [16],GI50 [17],GI50 [18],GI50 [19],GI50 [20]
CC12CCC(C(=O)O1)C(C)(C)O2 (stereo not drawn),> 100 µM (inactive),> 100 µM (inactive),> 100 µM (inactive),> 100 µM (inactive),> 100 µM (inactive),> 100 µM (inactive),> 100 µM (inactive),> 100 µM (inactive),> 100 µM (inactive),> 100 µM (inactive),> 100 µM (inactive),> 100 µM (inactive),> 100 µM (inactive),> 100 µM (inactive),> 100 µM (inactive),> 100 µM (inactive),> 100 µM (inactive),> 100 µM (inactive),,
Cc1nn(-c2ccccc2)c2c1CC(=O)Nc1ccccc1-2,0.679 µM (active),0.571 µM (active),0.555 µM (active),1.05 µM (active),0.607 µM (active),2.94 µM (inactive),1.6 µM (inactive),,0.522 µM (active),0.236 µM (active),1.81 µM (inactive),0.187 µM (active),9.66 µM (inactive),0.507 µM (active),2.82 µM (inactive),0.951 µM (active),0.482 µM (active),3.15 µM (inactive),2.65 µM (inactive),0.379 µM (active)
CN(C)CC(NC(NCS)C(=O)NCCNc1ccc(NCCNC(=O)C(NCS)NC(CN(C)C)OCCl)c2c1C(=O)c1c(O)ccc(O)c1C2=O)OCCl (stereo not drawn),0.256 µM (active),0.172 µM (active),0.929 µM (active),< 0.001 µM (active),,0.0331 µM (active),0.145 µM (active),0.0605 µM (active),,,0.147 µM (active),0.267 µM (active),0.228 µM (active),0.0245 µM (active),< 0.001 µM (active),0.0552 µM (active),0.387 µM (active),0.0151 µM (active),0.0365 µM (active),0.113 µM (active)
CSc1ncc2c(n1)-c1ccccc1OC2NC1CC1 (stereo not drawn),50.7 µM (inactive),73.5 µM (inactive),> 100 µM (inactive),49.5 µM (inactive),> 100 µM (inactive),33.2 µM (inactive),49 µM (inactive),,37.2 µM (inactive),30.2 µM (inactive),> 100 µM (inactive),> 100 µM (inactive),51.2 µM (inactive),92 µM (inactive),29.6 µM (inactive),> 100 µM (inactive),57.5 µM (inactive),,63 µM (inactive),78.3 µM (inactive)
CN(C)CCCNC(=O)c1c(-c2cccnc2)cnc2ccccc12,> 100 µM (inactive),> 10 µM (inactive),> 100 µM (inactive),> 100 µM (inactive),> 100 µM (inactive),> 100 µM (inactive),> 100 µM (inactive),> 100 µM (inactive),> 100 µM (inactive),> 100 µM (inactive),> 100 µM (inactive),> 100 µM (inactive),> 100 µM (inactive),,> 100 µM (inactive),> 100 µM (inactive),> 100 µM (inactive),> 100 µM (inactive),> 100 µM (inactive),61.9 µM (inactive)
CCCC(=O)Nc1cc(/C=C/C(=O)N2CC(CCl)c3c2cc([N+](=O)[O-])c2ccccc32)n(C)c1 (stereo not drawn),3.73 µM (inactive),,> 100 µM (inactive),1.32 µM (inactive),56.1 µM (inactive),> 75.3 µM (inactive),> 100 µM (inactive),,3.01 µM (inactive),0.767 µM (active),> 100 µM (inactive),> 100 µM (inactive),,,47.1 µM (inactive),> 60.8 µM (inactive),> 100 µM (inactive),> 35.1 µM (inactive),0.632 µM (active),> 47.3 µM (inactive)
COC(C/C(=C/CO[Si](C(C)C)(C(C)C)C(C)C)C(=O)N(C(=O)OC(C)(C)C)c1ccccc1I)OC,23.6 µM (inactive),41.9 µM (inactive),38.8 µM (inactive),45.9 µM (inactive),,42.1 µM (inactive),0.0262 µM (active),,22.9 µM (inactive),,> 100 µM (inactive),26.9 µM (inactive),,18.2 µM (inactive),33.2 µM (inactive),28.4 µM (inactive),29.2 µM (inactive),57.7 µM (inactive),> 100 µM (inactive),56.2 µM (inactive)
CC1(C)O[C@H]2OC(CO)C(OS(C)(=O)=O)[C@H]2O1 (stereo partly drawn),> 100 µM (inactive),> 100 µM (inactive),> 100 µM (inactive),> 100 µM (inactive),> 100 µM (inactive),> 100 µM (inactive),> 100 µM (inactive),> 100 µM (inactive),,> 100 µM (inactive),,> 100 µM (inactive),> 100 µM (inactive),> 100 µM (inactive),> 100 µM (inactive),> 100 µM (inactive),> 100 µM (inactive),> 100 µM (inactive),> 100 µM (inactive),> 100 µM (inactive)
CCCCCCc1nn2c(-c3ccc(C)cc3)nnc2s1,56.1 µM (inactive),> 100 µM (inactive),42.1 µM (inactive),> 100 µM (inactive),81.8 µM (inactive),> 100 µM (inactive),,,46.2 µM (inactive),,> 100 µM (inactive),> 100 µM (inactive),76.9 µM (inactive),,> 100 µM (inactive),> 100 µM (inactive),> 100 µM (inactive),> 100 µM (inactive),> 100 µM (inactive),77.1 µM (inactive)
C=C[C@@H]1OC(=O)O[C@H]1CO,> 100 µM (inactive),> 100 µM (inactive),> 100 µM (inactive),> 100 µM (inactive),,> 100 µM (inactive),> 100 µM (inactive),> 100 µM (inactive),> 100 µM (inactive),,> 100 µM (inactive),> 100 µM (inactive),> 100 µM (inactive),> 100 µM (inactive),,> 100 µM (inactive),> 100 µM (inactive),> 100 µM (inactive),> 100 µM (inactive),> 100 µM (inactive)
O=C(Nc1ccc2nc(O)n[n+]([O-])c2c1)C(F)(F)F,> 100 µM (inactive),> 100 µM (inactive),> 100 µM (inactive),> 100 µM (inactive),> 100 µM (inactive),> 100 µM (inactive),> 100 µM (inactive),,> 100 µM (inactive),> 100 µM (inactive),> 100 µM (inactive),> 100 µM (inactive),> 100 µM (inactive),> 100 µM (inactive),> 100 µM (inactive),> 100 µM (inactive),> 100 µM (inactive),> 100 µM (inactive),> 100 µM (inactive),> 100 µM (inactive)
